Assay results taken from PubChem BioAssay (NCI).
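1) Cells in 96-well plates. 2) Compound, 48 h, 5 concentrations. 3) Linear interpolation between surrounding doses. 4) Unreached endpoint = highest concentration. The concentration for 50% growth inhibition is given as GI50. The concentration for full growth arrest is given as TGI.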

How the values were obtained:
Assay in all cases: NCI tumour cell line growth inhibition, 48 h
[1] = test system: HCT-116 colon
[2] = test system: MOLT-4 leukemia
[3] = test system: 786-0 renal
[4] = test system: SK-MEL-5 melanoma
[5] = test system: EKVX NSCLC
[6] = test system: A549 NSCLC
[7] = test system: A498 renal
[8] = test system: TK-10 renal
[9] = test system: M14 melanoma
[10] = test system: RXF 393 renal
[11] = test system: UACC-62 melanoma
[12] = test system: MDA-MB-231 breast
[13] = test system: SK-OV-3 ovarian
[14] = test system: NCI-H460 lung
[15] = test system: U251 CNS
[16] = test system: MALME-3M melanoma
[17] = test system: HCC-2998 colon
[18] = test system: COLO 205 colon
[19] = test system: LOX IMVI melanoma
[20] = test system: NCI-H522 lung
[21] = test system: UO-31 renal
[22] = test system: OVCAR-5 ovarian
[23] = test system: IGROV1 ovarian
[24] = test system: SK-MEL-28 melanoma
[25] = test system: HS 578T breast
[26] = test system: MDA-MB-435
[27] = test system: SNB-19 CNS
[28] = test system: HOP-92 NSCLC
[29] = test system: OVCAR-3 ovarian
[30] = test system: NCI-H226 lung
[31] = test system: NCI/ADR-RES ovarian
[32] = test system: MCF7 breast
[33] = test system: HOP-62 NSCLC
[34] = test system: K-562 leukemia
[35] = test system: RPMI-8226 leukemia
[36] = test system: SR leukemia
[37] = test system: PC-3 prostate
[38] = test system: SNB-75 CNS
[39] = test system: OVCAR-8 ovarian
[40] = test system: SW-620 colon
[41] = test system: BT-549 breast
[42] = test system: HCT-15 colon
[43] = test system: ACHN renal
[44] = test system: CCRF-CEM leukemia
[45] = test system: T-47D breast
[46] = test system: SN12C renal
[47] = test system: CAKI-1 renal
[48] = test system: KM12 colon
[49] = test system: SF-295 CNS
[50] = test system: NCI-H23 lung
[51] = test system: HT29 colon
[52] = test system: SF-539 CNS
[53] = test system: SK-MEL-2 melanoma
[54] = test system: OVCAR-4 ovarian
[55] = test system: SF-268 CNS
[56] = test system: UACC-257 melanoma

O=C(CI)NC(=O)NC(=O)NCc1ccccc1
GI50 [1]: 3.39 µM | TGI [1]: 12.6 µM | GI50 [2]: 0.969 µM | TGI [2]: 3.15 µM | GI50 [3]: 1.98 µM | TGI [3]: 4.18 µM | GI50 [4]: 4.73 µM | TGI [4]: 15.9 µM | GI50 [5]: 17.5 µM | TGI [5]: 39.6 µM | GI50 [6]: 18.7 µM | TGI [6]: 42.8 µM | GI50 [7]: 15.9 µM | TGI [7]: 30.9 µM | GI50 [8]: 1.86 µM | TGI [8]: 4.12 µM | GI50 [9]: 2.89 µM | TGI [9]: 10.8 µM | GI50 [10]: 2.98 µM | TGI [10]: 9.31 µM | GI50 [11]: 3.82 µM | TGI [11]: 14.6 µM | GI50 [12]: 3.9 µM | TGI [12]: 15.7 µM | GI50 [13]: 15.4 µM | TGI [13]: 29 µM | GI50 [14]: 5.3 µM | TGI [14]: 23.4 µM | GI50 [15]: 13.6 µM | TGI [15]: 27.1 µM | GI50 [16]: 1.57 µM | TGI [16]: 3.52 µM | GI50 [17]: 10.4 µM | TGI [17]: 22.9 µM | GI50 [18]: 2.13 µM | TGI [18]: 4.64 µM | GI50 [19]: 1.44 µM | TGI [19]: 3 µM | GI50 [20]: 1.62 µM | TGI [20]: 3.52 µM | GI50 [21]: 1.66 µM | TGI [21]: 3.31 µM | GI50 [22]: 2.98 µM | TGI [22]: 10.8 µM | GI50 [23]: 2.56 µM | TGI [23]: 6.83 µM | GI50 [24]: 2.96 µM | TGI [24]: 11.3 µM | GI50 [25]: 20.9 µM | TGI [25]: 72.4 µM | GI50 [26]: 3.15 µM | TGI [26]: 11.7 µM | GI50 [27]: 13 µM | TGI [27]: 31.9 µM | GI50 [28]: 1.71 µM | TGI [28]: 6.29 µM | GI50 [29]: 1.82 µM | TGI [29]: 3.37 µM | GI50 [30]: 4.53 µM | TGI [30]: 20.4 µM | GI50 [31]: 4.62 µM | TGI [31]: 30.3 µM | GI50 [32]: 2.28 µM | TGI [32]: 8.59 µM | GI50 [33]: 18.5 µM | TGI [33]: 42 µM | GI50 [34]: 1.16 µM | TGI [34]: 4.05 µM | GI50 [35]: 3.2 µM | TGI [35]: 9.71 µM | GI50 [36]: 0.804 µM | TGI [36]: 3.1 µM | GI50 [37]: 15.1 µM | TGI [37]: 30.7 µM | GI50 [38]: 11.3 µM | TGI [38]: 29.2 µM | GI50 [39]: 4.32 µM | TGI [39]: 19.6 µM | GI50 [40]: 1.77 µM | TGI [40]: 3.78 µM | GI50 [41]: 2.8 µM | TGI [41]: 8.17 µM | GI50 [42]: 2.03 µM | TGI [42]: 4.94 µM | GI50 [43]: 1.95 µM | TGI [43]: 3.76 µM | GI50 [44]: 0.51 µM | TGI [44]: 2.14 µM | GI50 [45]: 2.48 µM | TGI [45]: 6.7 µM | GI50 [46]: 3.5 µM | TGI [46]: 14.6 µM | GI50 [47]: 1.69 µM | TGI [47]: 3.12 µM | GI50 [48]: 10.9 µM | TGI [48]: 24.9 µM | GI50 [49]: 14.1 µM | TGI [49]: 31.9 µM | GI50 [50]: 4.32 µM | TGI [50]: 19.5 µM | GI50 [51]: 2.66 µM | TGI [51]: 6.72 µM | GI50 [52]: 1.92 µM | TGI [52]: 4 µM | GI50 [53]: 7.5 µM | TGI [53]: 21.6 µM | GI50 [54]: 4.42 µM | TGI [54]: 31 µM | GI50 [55]: 4.4 µM | TGI [55]: 21.6 µM | GI50 [56]: 11.5 µM | TGI [56]: 23.9 µM
